What was measured:
Assay in all cases: combination Emax (second highest fraction inhibited in the dose matrix, 72 h); higher = more inhibition; extreme values may be limits of the assay
HCC70 (Breast Carcinoma) = system: HCC70 (Breast Carcinoma)
In short: (§1)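 Bliss excess equals the observed combination effect minus the expected value EA + EB − EA·EB, where EA and EB are the effects of each agent alone. Combination Emax is the second-highest inhibition within the matrix. Inhibition was scaled from CellTiter-Glo 2.0 luminescence, with 0 set by vehicle wells and 1 by blank wells, after 72 hours of two-drug dosing of cells plated in 1536-well plates.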

[1] = system: CGTH-W-1 (Thyroid Gland Carcinoma)
In short: as §1

[2] = system: CESS (Acute Myeloid Leukemia)
In short: as §1

NB13 (Neuroblastoma) = system: NB13 (Neuroblastoma)
In short: as §1

EW-16 (Ewing's Sarcoma) = system: EW-16 (Ewing's Sarcoma)
In short: as §1

[3] = system: NCI-H2087 (Lung Adenocarcinoma)
In short: as §1

[4] = system: MHH-ES-1 (Ewing's Sarcoma)
In short: as §1

[5] = system: JVM-2 (B-Cell Non-Hodgkin's Lymphoma)
In short: as §1

[6] = system: SK-HEP-1 (Hepatocellular Carcinoma)
In short: as §1

[7] = system: EPLC-272H (Other Solid Carcinomas)
In short: as §1

[8] = system: G-402 (Other Solid Carcinomas)
In short: as §1

[9] = system: ESO26 (Esophageal Adenocarcinoma)
In short: as §1

KP-N-YN (Neuroblastoma) = system: KP-N-YN (Neuroblastoma)
In short: as §1

5637 (Bladder Carcinoma) = system: 5637 (Bladder Carcinoma)
In short: as §1

[10] = system: NCI-H2228 (Lung Adenocarcinoma)
In short: as §1

[11] = system: HCC1428 (Breast Carcinoma)
In short: as §1

[12] = system: SW620 (Colorectal Carcinoma)
In short: as §1

[13] = system: HT55 (Colorectal Carcinoma)
In short: as §1

RH-41 (Rhabdomyosarcoma) = system: RH-41 (Rhabdomyosarcoma)
In short: as §1

[14] = system: Jurkat (T-Lymphoblastic Leukemia)
In short: as §1

| Structure (SMILES) | combination Emax (HCC70 (Breast Carcinoma)) | combination Emax [1] | combination Emax [2] | combination Emax (NB13 (Neuroblastoma)) | combination Emax (EW-16 (Ewing's Sarcoma)) | combination Emax [3] | combination Emax [4] | combination Emax [5] | combination Emax [6] | combination Emax [7] | combination Emax [8] | combination Emax [9] | combination Emax (KP-N-YN (Neuroblastoma)) | combination Emax (5637 (Bladder Carcinoma)) | combination Emax [10] | combination Emax [11] | combination Emax [12] | combination Emax [13] | combination Emax (RH-41 (Rhabdomyosarcoma)) | combination Emax [14] |
| --- | --- | --- | --- | --- | --- | --- | --- | --- | --- | --- | --- | --- | --- | --- | --- | --- | --- | --- | --- | --- |
| COc1nnc2ccc(N3CCC(c4ccc(OCCN5CCN(C)C(=O)[C@H]5C)cc4)CC3)nn12 [AZD5153] + Cc1c2c(nn1C)CSCc1cc(n(C)n1)CSc1cc(c3ccccc3c1)OCCCc1c(C(=O)O)n(C)c3c-2c(Cl)ccc13 [AZD5991] (first compound max 1 µM, 7x7, partner max 1 µM) | 0.96 | 0.428 | 0.76 | 0.907 | 0.486 | 0.453 | 0.911 | 0.711 | 0.583 | 0.959 | 0.987 | 0.778 | 0.449 | 0.637 | 0.372 | 0.984 | 0.512 | 0.61 | 1 | 1 |
| COc1nnc2ccc(N3CCC(c4ccc(OCCN5CCN(C)C(=O)[C@H]5C)cc4)CC3)nn12 [AZD5153] + Cn1cnc2c(F)c(Nc3ccc(Br)cc3Cl)c(C(=O)NOCCO)cc21 [Selumetinib] (first compound max 1 µM, 7x7, partner max 10 µM) | 0.584 | 0.356 | 0.606 | 0.565 | 0.506 | 0.631 | 0.707 | 0.702 | 0.234 | 0.868 | 0.797 | 0.709 | 0.369 | 0.81 | 0.428 | 0.728 | 0.76 | 0.857 | 0.92 | 0.594 |
| Cc1c2c(nn1C)CSCc1cc(n(C)n1)CSc1cc(c3ccccc3c1)OCCCc1c(C(=O)O)n(C)c3c-2c(Cl)ccc13 [AZD5991] + C1CN(CCC1(C(=O)N[C@@H](CCO)C2=CC=C(C=C2)Cl)N)C3=NC=NC4=C3C=CN4 [Capivasertib] (first compound max 1 µM, 7x7, partner max 3 µM) | 0.99 | 0.265 | 0.566 | 0.349 | 0.195 | 0.129 | 0.591 | 0.801 | 0.334 | 0.932 | 0.984 | 0.405 | 0.256 | 0.174 | 0.426 | 0.977 | 0.16 | 0.269 | 1 | 1 |
| Cc1c2c(nn1C)CSCc1cc(n(C)n1)CSc1cc(c3ccccc3c1)OCCCc1c(C(=O)O)n(C)c3c-2c(Cl)ccc13 [AZD5991] + C=CCn1c(=O)c2cnc(Nc3ccc(N4CCN(C)CC4)cc3)nc2n1-c1cccc(C(C)(C)O)n1 [AZD1775] (first compound max 1 µM, partner max 1 µM) | 0.951 | 0.19 | 0.967 | 0.902 | 0.507 | 0.481 | 0.87 | 0.966 | 0.35 | 0.971 | 0.965 | 0.683 | 0.912 | 0.954 | 0.55 | 0.97 | 0.65 | 0.715 | 1 | 0.972 |
| Cc1c2c(nn1C)CSCc1cc(n(C)n1)CSc1cc(c3ccccc3c1)OCCCc1c(C(=O)O)n(C)c3c-2c(Cl)ccc13 [AZD5991] + CC1(C)CCC(CN2CCN(c3ccc(C(=O)NS(=O)(=O)c4ccc(NCC5CCOCC5)c([N+](=O)[O-])c4)c(Oc4cnc5[nH]ccc5c4)c3)CC2)=C(c2ccc(Cl)cc2)C1 [Venetoclax] (first compound max 1 µM, 7x7, partner max 1 µM) | 0.938 | 0.257 | 0.525 | 0.546 | 0.273 | 0.153 | 0.852 | 0.639 | 0.45 | 0.901 | 0.926 | 0.151 | 0.817 | 0.217 | 0.184 | 0.987 | 0.191 | 0.13 | 1 | 0.888 |
| Cc1c2c(nn1C)CSCc1cc(n(C)n1)CSc1cc(c3ccccc3c1)OCCCc1c(C(=O)O)n(C)c3c-2c(Cl)ccc13 [AZD5991] + CN(C)CCCOc1ccc(-c2ccc3ncc4c(c3c2)n(C2CCOCC2)c(=O)n4C)cn1 [AZD0156] (first compound max 1 µM, 7x7, partner max 1 µM) | 0.86 | 0.19 | 0.233 | 0.282 | 0.29 | 0.201 | 0.652 | 0.753 | 0.281 | 0.936 | 0.965 | 0.269 | 0.252 | 0.216 | 0.307 | 0.961 | 0.294 | 0.276 | 1 | 0.928 |

— the supplement of paper PMC11061612
